IC50 data for 12 molecules are collected here from patent publication US11358952B2, “Substituted 4-aminoisoindoline-1,3-dione compounds, compositions thereof, and methods of treatment therewith” (Celgene Corporation, priority 2018, dated 2022).

This assay has as its system SU-DHL-4 cell line. Put plainly: SU-DHL-4 cell proliferation assay (Cell Titer-Glo viability). It is filed as cell-based. The conditions noted are these: Homo sapiens; cell viability IC50 activity level, DLBCL cell line SU-DHL-4, 120 hours post-treatment; read-out: SU-DHL-4 Act. In short, it runs like this:
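Viability read by ATP luminescence (Cell Titer-Glo) at the start and after 120 h of growth at 37°C in 5% CO2. DLBCL cells were seeded at 500 per well with compound across 0.5 nM–10 μM in 20 points, 0.1% DMSO. A four-parameter sigmoidal fit gave IC50 as 50% of DMSO control.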
As to `O=C1CCC(N2C(=O)c3cccc(NCc4ccc(CN5CCN(c6ncsn6)CC5)cc4)c3C2=O)C(=O)N1` (stereo not drawn) [Cpd 196, 4-(4-((4-(1,2,4,-thiadiazol-3-yl)piperazin-1-yl)methyl)benzylamino)-2-(2,6-dioxopiperidin-3-yl)isoindoline-1,3-dione], the IC50 is less than 0.2 µM. With `CCc1nsc(N2CCN(Cc3ccc(CNc4cccc5c4C(=O)N(C4CCC(=O)NC4=O)C5=O)cc3)CC2)n1` (stereo not drawn) [Cpd 197, 2-(2,6-dioxopiperidin-3-yl)-4-(4-((4-(3-ethyl-1,2,4-thiadiazol-5-yl)piperazin-1-yl)methyl)benzylamino)isoindoline-1,3-dione] the figure was less than 0.2 µM; with `CCc1nnc(N2CCN(Cc3ccc(CNc4cccc5c4C(=O)N(C4CCC(=O)NC4=O)C5=O)cc3)CC2)o1` (stereo not drawn) [Cpd 198, 2-(2,6-dioxopiperidin-3-yl)-4-(4-((4-(5-ethyl-1,3,4-oxadiazol-2-yl)piperazin-1-yl)methyl)benzylamino)isoindoline-1,3-dione], 0.751 to 1 µM; with `Cc1cc(N2CCN(Cc3ccc(CNc4cccc5c4C(=O)N(C4CCC(=O)NC4=O)C5=O)cc3)CC2)no1` (stereo not drawn) [Cpd 199, 2-(2,6-dioxopiperidin-3-yl)-4-(4-((4-(5-methylisoxazol-3-yl)piperazin-1-yl)methyl)benzylamino)isoindoline-1,3-dione], less than 0.2 µM. Then `Cc1cc(CNc2cccc3c2C(=O)N(C2CCC(=O)NC2=O)C3=O)ccc1CN1CC2(CCCC2)C1` (stereo not drawn) [Cpd 200, 4-(4-(2-azaspiro[3.4]octan-2-ylmethyl)-3-methylbenzylamino)-2-(2,6-dioxopiperidin-3-yl)isoindoline-1,3-dione], with less than 0.2 µM; and `Cc1cc(CNc2cccc3c2C(=O)N(C2CCC(=O)NC2=O)C3=O)ccc1CN1CC(N2CCOCC2)C1` (stereo not drawn) [Cpd 201, 2-(2,6-dioxopiperidin-3-yl)-4-(3-methyl-4-((3-morpholinoazetidin-1-yl)methyl)benzylamino)isoindoline-1,3-dione], with less than 0.2 µM; and `Cc1cc(CNc2cccc3c2C(=O)N(C2CCC(=O)NC2=O)C3=O)ccc1CN1CC(C(C)C)C1` (stereo not drawn) [Cpd 202, 2-(2,6-dioxopiperidin-3-yl)-4-(4-((3-isopropylazetidin-1-yl)methyl)-3-methylbenzylamino)isoindoline-1,3-dione], with less than 0.2 µM. With `NC(=O)c1ccc(N2CCN(Cc3ccc(CNc4cccc5c4C(=O)N([C@H]4CCC(=O)NC4=O)C5=O)cc3)CC2)nc1` [Cpd 203, (S)-6-(4-(4-((2-(2,6-dioxopiperidin-3-yl)-1,3-dioxoisoindolin-4-ylamino)methyl)benzyl)piperazin-1-yl)nicotinamide] the figure was less than 0.2 µM; with `NC(=O)c1ccc(N2CCN(Cc3ccc(CNc4cccc5c4C(=O)N([C@@H]4CCC(=O)NC4=O)C5=O)cc3)CC2)nc1` [Cpd 204, (R)-6-(4-(4-((2-(2,6-dioxopiperidin-3-yl)-1,3-dioxoisoindolin-4-ylamino)methyl)benzyl)piperazin-1-yl)nicotinamide], less than 0.2 µM; with `Cc1cc(CNc2cccc3c2C(=O)N(C2CCC(=O)NC2=O)C3=O)ccc1CN1CCN(c2ccc(C(N)=O)cn2)CC1` (stereo not drawn) [Cpd 205, 6-(4-(4-((2-(2,6-dioxopiperidin-3-yl)-1,3-dioxoisoindolin-4-ylamino)methyl)-2-methylbenzyl)piperazin-1-yl)nicotinamide], less than 0.2 µM.

With `NC(=O)c1ccc(N2CCN(Cc3ccc(CNc4cccc5c4C(=O)N([C@@H]4CCC(=O)NC4=O)C5=O)c(F)c3)CC2)nc1` [Cpd 206, (R)-6-(4-(4-((2-(2,6-dioxopiperidin-3-yl)-1,3-dioxoisoindolin-4-ylamino)methyl)-3-fluorobenzyl)piperazin-1-yl)nicotinamide], the IC50 was less than 0.2 µM. As for `NC(=O)c1ccc(N2CCN(Cc3ccc(CNc4cccc5c4C(=O)N([C@H]4CCC(=O)NC4=O)C5=O)c(F)c3)CC2)nc1` [Cpd 207, (S)-6-(4-(4-((2-(2,6-dioxopiperidin-3-yl)-1,3-dioxoisoindolin-4-ylamino)methyl)-3-fluorobenzyl)piperazin-1-yl)nicotinamide], the IC50 was less than 0.2 µM.
